Where a name gives a salt, the structure may show the parent alone. Read-outs that look alike come from different tables or passages of the source. Values belong to the molecule of their own block, whether it stands above or below them.
What was measured:
[1] = molecular target: human MCH1 receptor (Homo sapiens, UniProt Q99705); assay: Functional assay: intracellular calcium mobilization (antagonist potency Kb); assay type: cell-based; set-up: expressed in transfected cells; host or cells: COS-7 cells, transient, DEAE-dextran, plasmid pEXJ.HR-TL231 (ATCC 203197)
Chain of human MCH1 receptor (Q99705 whole entry): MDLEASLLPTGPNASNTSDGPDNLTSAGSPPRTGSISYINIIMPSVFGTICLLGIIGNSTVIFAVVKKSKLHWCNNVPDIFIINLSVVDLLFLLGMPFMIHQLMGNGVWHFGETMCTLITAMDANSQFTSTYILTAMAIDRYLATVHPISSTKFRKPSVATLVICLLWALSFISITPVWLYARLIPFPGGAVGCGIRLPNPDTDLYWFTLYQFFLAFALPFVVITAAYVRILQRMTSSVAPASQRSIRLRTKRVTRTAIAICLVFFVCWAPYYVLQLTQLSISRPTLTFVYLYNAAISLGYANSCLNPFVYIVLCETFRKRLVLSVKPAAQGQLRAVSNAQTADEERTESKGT
Procedure: Intracellular calcium mobilization assays for the MCH1 receptor were carried out using plasmid pEXJ.HR-TL231 (ATCC Accession No. 203197). COS-7 cells were transiently transfected with DNA encoding the MCH1 receptor utilizing the DEAE-dextran method as described above. The intracellular free calcium concentration was measured by fluorescent imaging using the calcium sensitive fluorscent dye Fluo-3. COS-7 cells expressing the human MCH1 receptor were seeded onto sterile 96 well plates, washed with Hank's balanced salt solution (HBSS), containing 20 mM HEPES, 2.5 mM probenecid, and 0.1% BSA, and loaded with the same buffer containing 3.8 μM Fluo-3 for 1 hour at 37° C. After washing with HBSS to remove the fluo-3 solution, cells were equilibrated for 10 minutes.

[2] = Table 1, cloned human MCH1 receptor, functional assay, read-out: Kb (nM) hMCH1
[3] = Table 2, antagonist potency at the human MCH1 receptor, read-out: hMCH1 Kb
[4] = Table 3, antagonist potency at the human MCH1 receptor, read-out: hMCH1 Kb
[5] = read-out: hMCH1 Kb, Table 3, antagonist potency at the human MCH1 receptor

Molecule: COCC1=C(C(=O)OC)C(c2ccc(F)c(F)c2)N(C(=O)NCCCN2CCC(OC(C)=O)(c3ccccc3)CC2)C(=O)N1 (stereo not drawn) (as salt: hydrochloride) [Example 3, (1)-1,2,3,6-TETRAHYDRO-1-{N-[3-(4-O-ACETYL)-4-PHENYLPIPERIDIN-1-YL]PROPYL}CARBOXAMIDO-5-METHOXYCARBONYL-4-METHOXYMETHYL-6-(3,4-DIFLUOROPHENYL)-2-OXOPYRIMIDINE]
melting point: 82 to 84 °C

Molecule: COC(=O)C1=C(C)NC(=O)N(C(=O)NCCCN2CCC3(CC2)OCc2ccccc23)C1c1ccc(F)c(F)c1 (stereo not drawn) (as salt: hydrochloride) [Example 20, 4-(3,4-DIFLUORPHENYL)-6-METHYL-2-OXO-3-{[3-(4-SPIRO[ISOBENZO-FURAN-1(3H),4′-PIPERIDINE]PROPYL}-1,2,3,4-TETRAHYDROPYRIMIDINE-5-CARBOXYLIC ACID METHYL ESTER]
melting point: 178 to 182 °C

Molecule: COC(=O)C1=C(C)NC(=O)N(C(=O)NCCCN2CCC3(CCc4ccccc43)CC2)C1c1ccc2nonc2c1 (racemic) [Example 21]
Kb [1, 2]: 28 nM

Molecule: COCC1=C(C(=O)OC)C(c2ccc(F)c(F)c2)N(C(=O)NCCCN2CCC(OC(C)=O)(c3ccccc3)CC2)C(=O)N1 (stereo not drawn) [Example 3, (1)-1,2,3,6-TETRAHYDRO-1-{N-[3-(4-O-ACETYL)-4-PHENYLPIPERIDIN-1-YL]PROPYL}CARBOXAMIDO-5-METHOXYCARBONYL-4-METHOXYMETHYL-6-(3,4-DIFLUOROPHENYL)-2-OXOPYRIMIDINE]
Kb [1]: 201 nM

Molecule: O=C(NC1CCN(CCC2CCc3ccccc3C2=O)CC1)c1ccccc1 (stereo not drawn) [Example 5]
Kb [1, 2]: 258 nM
melting point: 158 to 159 °C

Molecule: CCCCN(CCCC)c1ccc(CN2CCC(CNC(=O)N3C(=O)NC(C)=C(C(=O)OC)C3c3ccc4nonc4c3)CC2)cc1 (stereo not drawn) [Example 6]
Kb [1, 2]: 42 nM
Kb [1, 3]: 42 nM
Kb [1, 4]: 42 nM

Molecule: COC(=O)C1=C(C)NC(=O)N(C(=O)NCCCN2CCC(c3ccccc3)CC2)C1c1ccc2nonc2c1 (stereo not drawn) [Example 8, 6-(BENZOFURAZAN-5-YL)-1,2,3,6-TETRAHYDRO-5-METHOXYCARBONYL-4-METHYL-2-OXO-1-{N-[3-(4-PHENYLPIPERIDIN-1-YL)PROPYL]}CARBOXAMIDO-PYRIMIDINE]
Kb [1, 2]: 88 nM

Molecule: COC(=O)C1=C(C)NC(=O)N(C(=O)NCCCN2CCC(c3ccccc3)CC2)C1c1ccc(F)c(F)c1 (stereo not drawn) [Example 11, 6-(3,4-DIFLOUROPHENYL)-1,2,3,6-TETRAHYDRO-5-METHOXYCARBONYL-4-METHYL-2-OXO-1-{N-[3-(4-PHENYLPIPERIDIN-1-YL) PROPYL]}CARBOXAMIDO-PYRIMIDINE]
Kb [1, 2]: 331 nM

Molecule: CCCCN(CCCC)c1ccc(CNC[C@H]2CC[C@H](NC(=O)c3cccc4ccccc34)CC2)cc1 [Example 13, N1-[4-([4-(DIBUTYLAMINO)BENZYL]AMINOMETHYL)CYCLOHEXYL]-1-NAPHTH-AMIDE]
Kb [1, 2]: 284 nM
Kb [1, 3]: 284 nM
Kb [1, 4]: 284 nM

Molecule: COC(=O)C1=C(C)NC(=O)N(C(=O)NCCCN2CCC3(CC2)OCc2ccccc23)C1c1ccc(F)c(F)c1 (stereo not drawn) [Example 20, 4-(3,4-DIFLUORPHENYL)-6-METHYL-2-OXO-3-{[3-(4-SPIRO[ISOBENZO-FURAN-1(3H),4′-PIPERIDINE]PROPYL}-1,2,3,4-TETRAHYDROPYRIMIDINE-5-CARBOXYLIC ACID METHYL ESTER]
Kb [1]: 5 nM
Kb ([1]; read-out: Kb (nM) hMCH1, Table 1, cloned human MCH1 receptor, functional assay): 5 nM
Kb [1, 5]: 5 nM

Molecule: Fc1ccc(C(c2ccc(F)cc2)N2CCN(C/C=C/c3ccccc3)CC2)cc1 [Example 26, 1-[BIS(4-FLUOROPHENYL)METHYL]-4-(3-PHENYL-2-PROPENYL)PIPERAZINE]
Kb [1, 2]: 260 nM
Kb [1, 3]: 260 nM

Molecule: Cc1cc(O)cc(O)c1/C=N/c1ccc(-c2cn3ccccc3n2)cc1 [Example 27]
Kb [1, 2]: 279 nM
Kb [1, 3]: 279 nM

Molecule: O=C(CCCN1CCC(O)(c2ccc(Cl)cc2)CC1)c1ccc(Cl)cc1 [Example 29]
Kb [1]: 9 nM
Kb ([1]; read-out: hMCH1 Kb, Table 2, antagonist potency at the human MCH1 receptor): 9 nM
Kb [1, 5]: 9 nM

Molecule: CN1CN(c2ccccc2)C2(CCN(CCCC(=O)c3ccc(F)cc3)CC2)C1=O [Example 30, N-METHYL-8-[4-(4-FLUOROPHENYL)-4-OXOBUTYL]-1-PHENYL-1,3,8-TRI-AZASPIRO-[4.5]DECAN-4-ONE]
Kb [1, 2]: 479 nM
Kb [1, 3]: 479 nM

Molecule: O=[N+]([O-])c1ccccc1S(=O)(=O)n1nnc2ccccc21 [Example 31, 1H-1,2,3-BENZOTRIAZOL-1-YL (2-NITROPHENYL) SULFONE]
Kb [1, 2]: 7 nM

Molecule: COC(=O)C1=C(C)NC(=O)N(C(=O)NCCCN2CCC3(CCc4ccccc43)CC2)C1c1ccc(F)c(F)c1 (stereo not drawn) [Example 32, (1)-1,2,3,6-TETRAHYDRO-1-{N-[4-(DIHYDROINDENE)-1-YL}PROPYL}-CARBOXAMIDO-5-METHOXYCARBONYL-2-OXO-6-(3,4-DIFLUORO)-4-METHYL-PYRIMIDINE]
Kb [1]: 67 nM
melting point: 150 to 153 °C

Molecule: (1)-1,2,3,6-TETRAHYDRO-1-{N-[4-(3,4-DIHYDRO-2-OXOSPIRONAPHTHALENE-1(2H))-PIPERIDINE-1-YL]PROPYL}CARBOXAMIDO-5-METHOXY-CARBONYL-2-OXO-6-(3,4-DIFLUOROPHENYL)-4-METHYL-PYRIMIDINE [Example 24]
Kb [1, 2]: 102 nM

Molecule: (1)-1,2,3,6-TETRAHYDRO-1-{N-[4-(3,4-DIHYDRO-2-OXOSPIRONAPHTHALENE-1(2H))-PIPERIDINE-1-YL]PROPYL}CARBOXAMIDO-5-METHOXYCARBONYL-2-OXO-6-(3,4-BENZOFURAZAN)-4-METHYLPYRIMIDINE HYDROCHLORIDE [Example 23]
Kb [1, 2]: 68 nM

Results, then the molecule that gave them:

melting point: 243 to 244 °C
Molecule: O=C(CCCN1CCC(NC(=O)c2ccccc2)CC1)c1ccc(Cl)cc1 (as salt: HCl) [Example 28, 1-[3-(4-CHLOROBENZOYL)]PROPYL-4-BENZAMIDOPIPERIDINE]

melting point: 66 to 71 °C
Molecule: COC(=O)C1=C(C)NC(=O)N(C(=O)NCCCN2CCN(c3ccccc3C)CC2)C1c1ccc(F)c(F)c1 (stereo not drawn) (as salt: hydrochloride) [Example 35, 1,2,3,6-TETRAHYDRO-1{N-[4-(2′-METHYL-PHENYL)PIPERAZIN-1-YL]-PROPYL}-CARBOXAMIDO-4-METHYL-6-(3,4-DIFLUOROPHENYL)-2-OXO-PYRIMIDINE]

melting point: 180 to 182 °C
Molecule: COC(=O)C1=C(C)NC(=O)N(C(=O)NCCCN2CCC3(CC2)OCc2ccccc23)C1c1ccc2nonc2c1 (single isomer, unassigned) (as salt: hydrochloride) [Example 18]

melting point: 150 to 153 °C
Molecule: COC(=O)C1=C(C)NC(=O)N(C(=O)NCCCN2CCN(c3ccccc3[N+](=O)[O-])C[C@@H]2C)C1c1ccc(F)c(F)c1 (single isomer, unassigned; (+)) (as salt: HCl) [Example 34]

melting point: 168 to 172 °C
Molecule: COCC1=C(C(=O)OC)C(c2ccc(F)c(F)c2)N(C(=O)NCCCN2CCC(c3cccc4ccccc34)CC2)C(=O)N1 (single isomer, unassigned; (+)) [Example 14, (+)-1,2,3,6-TETRAHYDRO-1-{N-[4-(1-NAPHTHYL)-PIPERIDIN-1-YL]PROP-YL}CARBOXAMIDO-4-METHOXYMETHYL-6-(3,4-DIFLUOROPHENYL)-2-OXO-PYRIMIDINE-5-CARBOXYLIC ACID METHYL ESTER]

melting point: 132 to 135 °C
Molecule: COCC1=C(C(=O)OC)C(c2ccc(F)c(F)c2)N(C(=O)NCCCN2CCC(O)(c3ncccc3C)CC2)C(=O)N1 (single isomer, unassigned; (+)) [Example 16]

Kb [1, 2]: 182 nM
Molecule: COC(=O)C1=C(C)NC(=O)N(C(=O)NCCCN2CCN(c3ccccc3[N+](=O)[O-])C[C@@H]2C)C1c1ccc(F)c(F)c1 (single isomer, unassigned; (+)) [Example 34]

Kb [1, 2]: 18 nM
Kb [1, 3]: 18 nM
Kb [1, 4]: 18 nM
Molecule: COCC1=C(C(=O)OC)C(c2ccc(F)c(F)c2)N(C(=O)NCCCN2CC=C(c3cccc(NC(C)=O)c3)CC2)C(=O)N1 (stereo not drawn) [Example 2, METHYL 3-[(3-4-[3-(ACETYLAMINO)PHENYL]-1,2,3,6-TETRAHYDRO-1-PYR-IDINYLPROPYL)AMINO]CARBONYL-4-(3,4-DIFLUOROPHENYL)-6-(METHOXY-METHYL)-2-OXO-1,2,3,4-TETRAHYDRO-5-PYRIMIDINECARBOXYLATE]

Kb [1, 2]: 276 nM
Molecule: COC(=O)C1=C(C)NC(=O)N(C(=O)NCCCN2CCN(c3ccccc3C)CC2)C1c1ccc(F)c(F)c1 (stereo not drawn) [Example 35, 1,2,3,6-TETRAHYDRO-1{N-[4-(2′-METHYL-PHENYL)PIPERAZIN-1-YL]-PROPYL}-CARBOXAMIDO-4-METHYL-6-(3,4-DIFLUOROPHENYL)-2-OXO-PYRIMIDINE]
